Assay results as given in the kinase profiling compilation of Christmann-Franck et al. (2016).

Legend:
Assay in all cases: radiometric filter-binding kinase assay
[1] = target: GSK3B (human) (UniProt P49841); conditions: compound 100.0 µM; ATP 5 µM
[2] = target: NEK6 (human) (UniProt Q9HC98); conditions: compound 100.0 µM; ATP 50 µM
[3] = target: MAP3K11 (human) (UniProt Q16584); conditions: compound 100.0 µM; ATP 20 µM
[4] = target: IKBKB (human) (UniProt O14920); conditions: compound 100.0 µM; ATP 5 µM
[5] = target: CLK2 (human) (UniProt P49760); conditions: compound 100.0 µM; ATP 5 µM
[6] = target: EPHA2 (human) (UniProt P29317); conditions: compound 100.0 µM; ATP 50 µM
[7] = target: NTRK1 (human) (UniProt P04629); conditions: compound 100.0 µM; ATP 20 µM
[8] = target: HIPK1 (human) (UniProt Q86Z02); conditions: compound 100.0 µM; ATP 20 µM
[9] = target: PRKAA1 PRKAB2 PRKAG1 (human) (UniProt O43741+Q13131+P54619); conditions: compound 100.0 µM; ATP 20 µM
[10] = target: MST4 (human) (UniProt Q9P289); conditions: compound 100.0 µM; ATP 20 µM
Chain of MST4 (human) (Q9P289 whole entry, looked up): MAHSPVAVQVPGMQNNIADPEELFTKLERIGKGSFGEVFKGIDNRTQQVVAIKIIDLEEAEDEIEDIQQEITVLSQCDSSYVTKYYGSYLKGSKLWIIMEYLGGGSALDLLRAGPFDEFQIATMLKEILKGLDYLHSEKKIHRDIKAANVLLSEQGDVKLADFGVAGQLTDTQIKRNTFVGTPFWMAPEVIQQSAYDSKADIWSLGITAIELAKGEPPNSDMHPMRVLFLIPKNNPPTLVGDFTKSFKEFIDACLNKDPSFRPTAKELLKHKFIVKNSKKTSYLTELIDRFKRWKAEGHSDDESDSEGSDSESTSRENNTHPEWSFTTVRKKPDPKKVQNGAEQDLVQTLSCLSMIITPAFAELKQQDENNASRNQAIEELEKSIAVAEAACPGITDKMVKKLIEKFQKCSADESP

[11] = target: EPHB1 (human) (UniProt P54762); conditions: compound 100.0 µM; ATP 20 µM
[12] = target: PIM2 (human) (UniProt Q9P1W9); conditions: compound 100.0 µM; ATP 5 µM
[13] = target: EPHB3 (human) (UniProt P54753); conditions: compound 100.0 µM; ATP 20 µM
Chain of EPHB3 (human) (P54753 whole entry, looked up): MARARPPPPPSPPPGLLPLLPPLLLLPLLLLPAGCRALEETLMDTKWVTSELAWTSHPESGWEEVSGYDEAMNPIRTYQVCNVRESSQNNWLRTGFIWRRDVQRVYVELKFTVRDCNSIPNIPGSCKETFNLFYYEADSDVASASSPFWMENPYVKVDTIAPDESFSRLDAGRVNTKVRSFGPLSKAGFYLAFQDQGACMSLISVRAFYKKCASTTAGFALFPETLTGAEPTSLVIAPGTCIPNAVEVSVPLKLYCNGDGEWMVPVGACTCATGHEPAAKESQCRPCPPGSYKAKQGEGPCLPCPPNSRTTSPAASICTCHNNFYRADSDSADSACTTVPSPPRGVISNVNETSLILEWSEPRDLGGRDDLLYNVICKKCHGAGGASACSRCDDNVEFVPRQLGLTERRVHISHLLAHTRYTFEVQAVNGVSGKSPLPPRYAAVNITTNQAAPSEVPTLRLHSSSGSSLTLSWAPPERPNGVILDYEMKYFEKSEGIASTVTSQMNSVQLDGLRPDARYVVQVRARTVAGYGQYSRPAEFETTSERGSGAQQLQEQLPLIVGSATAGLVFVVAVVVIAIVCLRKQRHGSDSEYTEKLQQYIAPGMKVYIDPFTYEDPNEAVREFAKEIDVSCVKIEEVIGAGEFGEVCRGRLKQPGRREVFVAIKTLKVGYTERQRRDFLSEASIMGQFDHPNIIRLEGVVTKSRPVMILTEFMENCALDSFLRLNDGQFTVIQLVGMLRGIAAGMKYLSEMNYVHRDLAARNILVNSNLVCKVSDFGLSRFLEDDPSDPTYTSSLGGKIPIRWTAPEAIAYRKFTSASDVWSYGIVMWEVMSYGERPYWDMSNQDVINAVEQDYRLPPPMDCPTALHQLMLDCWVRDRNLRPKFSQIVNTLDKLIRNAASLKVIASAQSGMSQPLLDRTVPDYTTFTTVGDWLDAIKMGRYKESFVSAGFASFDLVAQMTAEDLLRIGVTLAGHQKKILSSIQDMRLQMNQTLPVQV

[14] = target: HIPK2 (human) (UniProt Q9H2X6); conditions: compound 100.0 µM; ATP 5 µM
[15] = target: INSR (human) (UniProt P06213); conditions: compound 100.0 µM; ATP 20 µM
[16] = target: PAK4 (human) (UniProt O96013); conditions: compound 100.0 µM; ATP 5 µM
Chain of PAK4 (human) (O96013 whole entry, looked up): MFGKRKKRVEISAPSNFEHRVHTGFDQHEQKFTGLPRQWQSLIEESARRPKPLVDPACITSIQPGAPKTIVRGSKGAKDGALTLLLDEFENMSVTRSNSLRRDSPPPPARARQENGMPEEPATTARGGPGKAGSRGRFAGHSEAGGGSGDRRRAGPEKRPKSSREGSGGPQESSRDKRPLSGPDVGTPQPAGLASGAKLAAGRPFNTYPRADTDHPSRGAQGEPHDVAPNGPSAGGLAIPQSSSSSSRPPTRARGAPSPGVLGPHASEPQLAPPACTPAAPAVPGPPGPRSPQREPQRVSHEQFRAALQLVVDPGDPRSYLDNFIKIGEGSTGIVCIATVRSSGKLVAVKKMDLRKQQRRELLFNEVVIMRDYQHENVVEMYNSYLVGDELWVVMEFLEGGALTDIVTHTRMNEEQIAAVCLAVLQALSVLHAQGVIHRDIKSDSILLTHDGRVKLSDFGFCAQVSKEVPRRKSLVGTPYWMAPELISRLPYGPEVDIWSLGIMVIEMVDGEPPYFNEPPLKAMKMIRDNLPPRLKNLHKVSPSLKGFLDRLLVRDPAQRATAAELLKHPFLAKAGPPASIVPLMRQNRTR

[17] = target: INSRR (human) (UniProt P14616); conditions: compound 100.0 µM; ATP 5 µM
[18] = target: MAP3K7 TAB1 (human) (UniProt Q15750+O43318); conditions: compound 100.0 µM; ATP 5 µM
[19] = target: MELK (human) (UniProt Q14680); conditions: compound 100.0 µM; ATP 50 µM
[20] = target: IGF1R (human) (UniProt P08069); conditions: compound 100.0 µM; ATP 5 µM
[21] = target: MARK2 (human) (UniProt Q7KZI7); conditions: compound 100.0 µM; ATP 20 µM
Chain of MARK2 (human) (Q7KZI7 whole entry, looked up): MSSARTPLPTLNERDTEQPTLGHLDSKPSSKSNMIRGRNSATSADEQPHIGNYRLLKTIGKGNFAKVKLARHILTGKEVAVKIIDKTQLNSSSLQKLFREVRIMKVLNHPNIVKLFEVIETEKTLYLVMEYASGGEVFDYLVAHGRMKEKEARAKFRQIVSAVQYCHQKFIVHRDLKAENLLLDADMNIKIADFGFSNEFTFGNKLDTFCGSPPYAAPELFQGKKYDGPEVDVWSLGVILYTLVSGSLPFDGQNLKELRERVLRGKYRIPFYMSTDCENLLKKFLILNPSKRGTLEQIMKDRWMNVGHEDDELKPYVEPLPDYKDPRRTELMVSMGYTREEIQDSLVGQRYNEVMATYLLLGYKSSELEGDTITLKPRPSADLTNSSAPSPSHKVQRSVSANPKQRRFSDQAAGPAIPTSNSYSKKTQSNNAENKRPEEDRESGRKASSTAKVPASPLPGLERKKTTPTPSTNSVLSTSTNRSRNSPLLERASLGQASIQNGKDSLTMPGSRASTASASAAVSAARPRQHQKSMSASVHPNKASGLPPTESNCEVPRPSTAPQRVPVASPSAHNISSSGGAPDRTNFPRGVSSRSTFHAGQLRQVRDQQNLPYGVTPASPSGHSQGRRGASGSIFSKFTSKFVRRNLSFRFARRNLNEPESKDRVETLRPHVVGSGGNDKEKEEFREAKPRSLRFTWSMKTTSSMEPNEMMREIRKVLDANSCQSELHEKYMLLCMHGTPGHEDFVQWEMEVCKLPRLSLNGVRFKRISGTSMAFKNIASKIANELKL

[22] = target: STK11 CAB39 STRADA (human) (UniProt Q9Y376+Q7RTN6+Q15831); conditions: compound 100.0 µM; ATP 20 µM
[23] = target: CaMK1 (human) (UniProt Q14012); conditions: compound 100.0 µM; ATP 50 µM
[24] = target: MAPK1 (human) (UniProt P28482); conditions: compound 100.0 µM; ATP 20 µM
Chain of MAPK1 (human) (P28482 whole entry, looked up): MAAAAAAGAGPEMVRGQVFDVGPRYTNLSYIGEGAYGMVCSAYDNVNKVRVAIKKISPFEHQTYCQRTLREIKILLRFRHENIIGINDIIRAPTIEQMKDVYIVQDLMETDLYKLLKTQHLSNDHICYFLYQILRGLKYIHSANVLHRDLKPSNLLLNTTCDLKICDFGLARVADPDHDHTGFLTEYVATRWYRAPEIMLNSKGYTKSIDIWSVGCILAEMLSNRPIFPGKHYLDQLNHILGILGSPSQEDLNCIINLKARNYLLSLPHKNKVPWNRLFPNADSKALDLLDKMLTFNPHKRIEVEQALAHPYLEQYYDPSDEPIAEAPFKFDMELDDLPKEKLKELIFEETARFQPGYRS

[25] = target: PRKCA (human) (UniProt P17252); conditions: compound 100.0 µM; ATP 20 µM
[26] = target: MAPK10 (human) (UniProt P53779); conditions: compound 100.0 µM; ATP 20 µM
[27] = target: BRSK2 (human) (UniProt Q8IWQ3); conditions: compound 100.0 µM; ATP 50 µM
Chain of BRSK2 (human) (Q8IWQ3 whole entry, looked up): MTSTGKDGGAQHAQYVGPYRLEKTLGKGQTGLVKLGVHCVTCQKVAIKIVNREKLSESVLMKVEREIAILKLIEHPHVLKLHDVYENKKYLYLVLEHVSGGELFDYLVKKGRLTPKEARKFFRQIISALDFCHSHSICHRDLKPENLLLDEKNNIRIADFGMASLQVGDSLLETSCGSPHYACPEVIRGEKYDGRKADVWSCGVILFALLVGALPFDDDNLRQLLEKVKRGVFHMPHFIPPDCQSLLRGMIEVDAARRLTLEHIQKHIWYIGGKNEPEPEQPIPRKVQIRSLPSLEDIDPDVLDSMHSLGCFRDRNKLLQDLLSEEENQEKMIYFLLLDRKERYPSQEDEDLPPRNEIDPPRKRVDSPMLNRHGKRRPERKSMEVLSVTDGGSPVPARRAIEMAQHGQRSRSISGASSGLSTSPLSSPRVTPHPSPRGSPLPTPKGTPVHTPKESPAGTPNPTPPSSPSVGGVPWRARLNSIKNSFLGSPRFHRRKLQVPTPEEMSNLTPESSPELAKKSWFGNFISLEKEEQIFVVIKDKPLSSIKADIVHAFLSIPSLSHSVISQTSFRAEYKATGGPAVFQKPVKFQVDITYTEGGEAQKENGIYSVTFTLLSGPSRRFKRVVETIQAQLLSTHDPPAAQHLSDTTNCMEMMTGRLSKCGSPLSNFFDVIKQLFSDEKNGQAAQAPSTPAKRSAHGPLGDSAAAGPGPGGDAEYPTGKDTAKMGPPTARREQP

[28] = target: MAPK12 (human) (UniProt P53778); conditions: compound 100.0 µM; ATP 5 µM
[29] = target: PRKCZ (human) (UniProt Q05513); conditions: compound 100.0 µM; ATP 5 µM
[30] = target: STK33 (human) (UniProt Q9BYT3); conditions: compound 100.0 µM; ATP 50 µM
[31] = target: CAMKK2 (human) (UniProt Q96RR4); conditions: compound 100.0 µM; ATP 20 µM
[32] = target: IKBKE (human) (UniProt Q14164); conditions: compound 100.0 µM; ATP 50 µM
Chain of IKBKE (human) (Q14164 whole entry, looked up): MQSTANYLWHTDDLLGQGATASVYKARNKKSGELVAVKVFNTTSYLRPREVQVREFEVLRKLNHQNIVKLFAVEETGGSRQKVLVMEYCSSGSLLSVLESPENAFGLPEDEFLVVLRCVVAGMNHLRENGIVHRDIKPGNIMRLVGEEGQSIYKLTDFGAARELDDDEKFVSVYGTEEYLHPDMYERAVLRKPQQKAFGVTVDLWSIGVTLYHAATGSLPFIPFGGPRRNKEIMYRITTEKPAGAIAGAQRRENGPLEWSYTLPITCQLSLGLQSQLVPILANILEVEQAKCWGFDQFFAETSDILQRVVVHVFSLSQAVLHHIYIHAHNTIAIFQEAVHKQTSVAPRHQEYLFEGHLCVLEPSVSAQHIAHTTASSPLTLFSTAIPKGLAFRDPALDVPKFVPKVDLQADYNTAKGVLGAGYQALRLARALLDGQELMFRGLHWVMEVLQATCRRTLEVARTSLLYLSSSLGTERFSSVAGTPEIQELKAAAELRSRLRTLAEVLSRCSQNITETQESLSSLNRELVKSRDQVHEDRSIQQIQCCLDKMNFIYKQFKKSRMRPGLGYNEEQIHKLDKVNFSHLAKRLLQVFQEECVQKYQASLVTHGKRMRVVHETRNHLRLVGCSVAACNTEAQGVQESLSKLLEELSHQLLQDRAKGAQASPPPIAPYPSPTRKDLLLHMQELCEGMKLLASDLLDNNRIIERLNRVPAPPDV

[33] = target: PKN2 (human) (UniProt Q16513); conditions: compound 100.0 µM; ATP 5 µM
[34] = target: SYK (human) (UniProt P43405); conditions: compound 100.0 µM; ATP 20 µM
[35] = target: CDK2 CCNA2 (human) (UniProt P20248+P24941); conditions: compound 100.0 µM; ATP 20 µM

Chain of NEK6 (human) (Q9HC98 whole entry, looked up): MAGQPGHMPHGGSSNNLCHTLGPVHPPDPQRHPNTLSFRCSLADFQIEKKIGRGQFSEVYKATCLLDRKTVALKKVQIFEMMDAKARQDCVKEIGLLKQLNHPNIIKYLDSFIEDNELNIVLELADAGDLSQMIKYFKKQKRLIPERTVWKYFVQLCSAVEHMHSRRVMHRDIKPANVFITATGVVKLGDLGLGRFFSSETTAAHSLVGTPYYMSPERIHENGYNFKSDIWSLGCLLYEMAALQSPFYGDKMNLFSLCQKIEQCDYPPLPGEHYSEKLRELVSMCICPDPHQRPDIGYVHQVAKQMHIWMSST

CC(C)(C)Nc1c(COCc2ccccc2)nc2[nH]cnn12
inhibition [1]: 38% | inhibition [2]: 0% | inhibition [3]: 0% | inhibition [4]: 9% | inhibition [5]: 43% | inhibition [6]: 0% | inhibition [7]: 6% | inhibition [8]: 0% | inhibition [9]: 18% | inhibition [10]: 0% | inhibition [11]: 0% | inhibition [12]: 16% | inhibition [13]: 90% | inhibition [14]: 18% | inhibition [15]: 4% | inhibition [16]: 0% | inhibition [17]: 4% | inhibition [18]: 31% | inhibition [19]: 16% | inhibition [20]: 0% | inhibition [21]: 13% | inhibition [22]: 0% | inhibition [23]: 83% | inhibition [24]: 0% | inhibition [25]: 0% | inhibition [26]: 0% | inhibition [27]: 22% | inhibition [28]: 0% | inhibition [29]: 0% | inhibition [30]: 0% | inhibition [31]: 28% | inhibition [32]: 0% | inhibition [33]: 16% | inhibition [34]: 12% | inhibition [35]: 14%

O=C(Nc1cnc2[nH]ccn2c1=O)c1ccccc1
inhibition [1]: 9% | inhibition [2]: 15% | inhibition [3]: 40% | inhibition [4]: 0% | inhibition [5]: 0% | inhibition [6]: 31% | inhibition [7]: 39% | inhibition [8]: 24% | inhibition [9]: 0% | inhibition [10]: 7% | inhibition [11]: 17% | inhibition [12]: 9% | inhibition [13]: 5% | inhibition [14]: 7% | inhibition [15]: 11% | inhibition [16]: 20% | inhibition [17]: 11% | inhibition [18]: 26% | inhibition [19]: 2% | inhibition [20]: 0% | inhibition [21]: 0% | inhibition [22]: 0% | inhibition [23]: 11% | inhibition [24]: 10% | inhibition [25]: 2% | inhibition [26]: 0% | inhibition [27]: 27% | inhibition [28]: 0% | inhibition [29]: 3% | inhibition [30]: 21% | inhibition [31]: 0% | inhibition [32]: 3% | inhibition [33]: 0% | inhibition [34]: 22% | inhibition [35]: 0%

COc1ccc(-c2cc3c(=O)[nH]cnc3s2)cc1OC
inhibition [1]: 62% | inhibition [2]: 60% | inhibition [3]: 8% | inhibition [4]: 29% | inhibition [5]: 50% | inhibition [6]: 37% | inhibition [7]: 15% | inhibition [8]: 13% | inhibition [9]: 0% | inhibition [10]: 16% | inhibition [11]: 4% | inhibition [12]: 25% | inhibition [13]: 0% | inhibition [14]: 58% | inhibition [15]: 0% | inhibition [16]: 30% | inhibition [17]: 0% | inhibition [18]: 45% | inhibition [19]: 22% | inhibition [20]: 0% | inhibition [21]: 0% | inhibition [22]: 0% | inhibition [23]: 66% | inhibition [24]: 0% | inhibition [25]: 18% | inhibition [26]: 3% | inhibition [27]: 9% | inhibition [28]: 0% | inhibition [29]: 0% | inhibition [30]: 0% | inhibition [31]: 0% | inhibition [32]: 32% | inhibition [33]: 0% | inhibition [34]: 0% | inhibition [35]: 0%

O=c1cc(-c2ccccc2F)nc2[nH]ccn12
inhibition [1]: 44% | inhibition [2]: 7% | inhibition [3]: 7% | inhibition [4]: 15% | inhibition [5]: 48% | inhibition [6]: 9% | inhibition [7]: 50% | inhibition [8]: 30% | inhibition [9]: 0% | inhibition [10]: 13% | inhibition [11]: 20% | inhibition [12]: 17% | inhibition [13]: 0% | inhibition [14]: 61% | inhibition [15]: 6% | inhibition [16]: 11% | inhibition [17]: 6% | inhibition [18]: 37% | inhibition [19]: 1% | inhibition [20]: 28% | inhibition [21]: 0% | inhibition [22]: 6% | inhibition [23]: 9% | inhibition [24]: 8% | inhibition [25]: 2% | inhibition [26]: 0% | inhibition [27]: 24% | inhibition [28]: 6% | inhibition [29]: 0% | inhibition [30]: 12% | inhibition [31]: 0% | inhibition [32]: 22% | inhibition [33]: 2% | inhibition [34]: 20% | inhibition [35]: 21%
